Assay results taken from US4109011A, “Insecticide carbamates of N-(polychloroallyl)-amino-phenols” (priority 1975, dated 1978).

Tests used:
[1] = test system: Macrosiphum Euphorbiae; test: Biological activity on Macrosiphum euphorbiae (aphides), potato seedlings sprayed with aqueous dispersion; type: in vivo; details: 24 h, read-out: Mortality Percent
Experimental: Biological Activity on Macrosiphum Euphorbiae (Aphides)
Potato seedlings, cultivated in pots, were infested with adult aphide females and, after a few hours, were sprayed with an aqueous dispersion of the compounds listed in Table 6. The mortality percentage was determined 24 hours after the treatment (on control non-treated seedlings, the mortality percentage was 0).
(§1) To show the variation in activity from one compound to another, depending on the species used, the activities of compounds according to this invention were investigated at different concentrations, expressed as percent of active principle, on various infesting species. The mortality percentage was computed in the same way as in the preceding examples.

[2] = test system: Culex Pipiens; test: Biological activity on Culex pipiens (mosquito larvae in aqueous dispersion); type: in vivo; details: 24 h, read-out: Percent of Mortality
Text: Biological Activity on Culex Pipiens (Diptera)
Mosquito larvae of the third and fourth ages were introduced into glass pots containing an aqueous dispersion of the compounds shown at 2 ppm and 0.2 ppm.
as §1

[3] = test system: Leptinotarsa Decimlineata; test: Biological activity on Leptinotarsa decemlineata larvae, sprayed potato seedlings; type: in vivo; details: read-out: Percent of Mortality
Text: Biological Activity on Leptinotarsa Decimlineata Coleoptera
Potato seedlings cultivated in pots were infested with 4-day old larvae and sprayed with an aqueous dispersion of the compounds according to this invention and Aminocarb as a comparison at doses of […]; respectively. The mortality percentage of the control, untreated seedlings, was zero.
as §1

[4] = test system: Pieris Brassicae; test: Biological activity on Pieris brassicae larvae, sprayed cut cauliflower leaves; type: in vivo; details: 0.1 percent, larvae, read-out: Percent of Mortality
Text: Biological Activity on Pieris Brassicae (Lepidoptera)
Cut leaves of cauliflower were sprayed with an aqueous dispersion of compound according to this invention at a 0.1% concentration. After drying, they were infested with 5-day old larvae. The mortality percentage of the control, untreated leaves, was zero.
as §1

[5] = test system: Meloidogyne Incognita; test: Biological activity on Meloidogyne incognita (nematocide activity, galls on tomato seedlings); type: in vivo; details: vs control
Experimental: Biological Activity on Meloidogyne Incognita (Nematoda)
A 1:1 mixture of field earth and sand infested by new-born larvae and eggs of the nematode was treated by uniformly mixing with a hydroacetone dispersion (20% by vol. of acetone) at a concentration of 0.1% and of 0.02% of the compounds under test so as to get soil samples containing 100 ppm and 20 ppm, respectively, of active principle. The soil was introduced into plastic pots and after 5 days, 5 tomato seedlings about 15 cm high were transplanted into each of them. Fourteen days after transplantation, the roots of the seedlings extracted from the soil were examined in order to determine the degree of infestation by counting the galls which had formed.
The nematocide activity is expressed in Table 13 as the percentage of infestation reduction with respect to the control (seedlings transplanted into the same soil treated with a dispersion free from active principle).

[6] = test system: Leptinotarsa Decimlineata; test: Biological activity on Leptinotarsa decemlineata larvae, sprayed potato seedlings; type: in vivo; details: read-out: Percent of Mortality; remark: listed apart in the source
[7] = Acute toxicity on white rats, administered orally; details: rat, in vivo, po
[8] = test system: Spodoptera Littoralis; test: Biological activity on Spodoptera littoralis larvae, sprayed cut tobacco leaves; type: in vivo; details: 0.1 percent, larvae, 48 hours, read-out: Percent of Mortality
Text: Biological Activity on Spodoptera Littoralis (Lepidoptera)
Cut tobacco leaves were sprayed with a 0.1% aqueous dispersion of compounds according to the present invention, shown in Table 12. After drying, the leaves were infested with 5-day old lepidopter larvae. The mortality percentage of the control was zero.
as §1

[9] = test system: Tetranychus Urticae; test: Biological activity on Tetranychus urticae eggs, bean leaf discs; type: in vivo; details: foliar, read-out: Percent of Mortality
Text: Biological Activity on Tetranychus Urticae (Acari)
Small discs of bean leaves were infested with acarus eggs and successively treated by spraying with an aqueous dispersion of a compound of this invention and Aminocarb as a comparison, at concentrations of 0.1 and 0.01%. The mortality percentage of the control, untreated discs, was zero.
as §1

[10] = test system: Musca Domestica; test: Biological activity on Musca domestica, topical application to adults; type: in vivo; details: 24 h, read-out: Percent of Mortality
Experimental: Biological Activity on Musca Domestica (Diptera)
Four day old adults were treated by topical application through a microsyringe with 1 mm^3 of an acetonic solution of the compounds shown in such concentrations that they received doses of 5γ/insect; 2γ/insect; 0.5γ/insect of active principle. The mortality percentage 24 hours after the treatment is reported in Table 8 (mortality of insects treated with 1 mm^3 of acetone = 0).

Row | Compound | mortality at 2 ppm [2] [%] | mortality at 0.1 % [3] [%] | mortality at 0.1 % [4] [%] | mortality at 0.01 % [6] [%] | LD50 [7] [mg/kg] | mortality at 0.1 % [8] [%] | also measured
1 | CNC(=O)Oc1cccc(NCC=C(Cl)Cl)c1 [M 6370] | 94 | 100 | 90 | 100 | 100 | – | mortality at 0.01 % [1]: 100%; mortality at 0.2 ppm [2]: 17%; Reduction of Infestation ([5]; 20 ppm in soil): 100%; Reduction of Infestation ([5]; 100 ppm in soil): 100%
2 | CNC(=O)Oc1ccc(NCC=C(Cl)Cl)c(C)c1 [M 6432] | – | – | 100 | – | – | 100 | –
3 | CNC(=O)Oc1ccc(NCC(Cl)=C(Cl)Cl)c(C)c1 [M 6737] | – | – | 100 | – | – | 100 | mortality at 0.01 % [9]: 80%; mortality at 0.1 % [9]: 100%
4 | CNC(=O)Oc1ccc(C)c(NCC(Cl)=C(Cl)Cl)c1 [M 6738] | 100 | 100 | – | 100 | 100 | – | mortality at 2 µg/insect [10]: 100%; mortality at 5 µg/insect [10]: 100%
5 | CNC(=O)Oc1cccc(NCC(Cl)=C(Cl)Cl)c1 [M 6740] | 100 | 100 | – | 100 | – | – | –
